Assay results taken from US20140005163A1 (NOVARTIS AG, priority 2010, published 2014).
Values after ≈ are worked out from the molar mass of the structure shown. Read-outs that look alike come from different tables or passages of the source.

What was measured:
[1] = target: T1, PI3K alpha (Homo sapiens, UniProt P42336); experiment: PI3K alpha kinase assay (Kinase-Glo luminescence); type: biochemical
T1 construct: p85(iSH2) fusion partner (see partner chain) (N); His tag (C); made in house; host or cells: baculovirus; Tn5 (Trichoplusia ni) or TiniPro insect cells
In short: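 Luminescent ATP-depletion assay (Kinase-Glo) with 10 nM PI3Kα and 10 μg/mL phosphatidylinositol as lipid substrate at 1 μM ATP. Incubation lasts 60 min at room temperature.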

[2] = target: T2, PI3K beta (Homo sapiens, UniProt P42338); experiment: PI3K beta kinase assay (Kinase-Glo luminescence); type: biochemical
T2 construct: for the full-length p110-b subunit are generated and fused by overlapping PCR; p85(iSH2) fusion partner (see partner chain) (N); His tag (C); made in house; host or cells: baculovirus; Tn5 (Trichoplusia ni) or TiniPro insect cells
In short: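 Enzyme: BV949 p85(iSH2)-Gly linker-p110β FL-His, 25 nM. Substrate: PI 10 μg/mL. ATP: 1 μM, added to start. Buffer: Tris pH 7.5 10 mM, MgCl2 3 mM, NaCl 50 mM, CHAPS 0.05%, DTT 1 mM. RT, 60 min. Readout: Kinase-Glo. IC50 by 4-parameter fit.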

[3] = target: T3, PI3K delta (Homo sapiens, UniProt O00329); experiment: PI3K delta kinase assay (Kinase-Glo luminescence); type: biochemical
T3 construct: for the full-length p110-d subunit are generated and fused by overlapping PCR; p85(iSH2) fusion partner (see partner chain) (N); His tag (C); made in house; host or cells: baculovirus; Tn5 (Trichoplusia ni) or TiniPro insect cells
In short: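 Inhibition is derived from luminescent detection of unconsumed ATP. The reaction runs for one hour at ambient temperature and contains the δ isoform fusion protein, phosphatidylinositol substrate and low (1 μM) ATP. Eight compound concentrations are tested in single, and a 4-parameter logistic model is used to calculate IC50.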

[4] = target: T4, PI3K gamma (Homo sapiens, UniProt P48736); experiment: PI3K gamma kinase assay (Kinase-Glo luminescence); type: biochemical
T4 construct: His tag (C); made in house; host or cells: baculovirus (pVL1393); Tn5 or TiniPro insect cells; construct from Roger Williams lab, MRC LMB
Protocol: In a more preferred assay, the kinase reaction is performed in a final volume of 10 μL per well of a low volume non binding CORNING, 384 well black plate (Cat. No. #3676). The final concentrations of ATP and phosphatidyl inositol (PI) in the assay are 1 μM and 10 μg/mL respectively. The reaction is started by the addition of ATP.
The components of the assay are added per well as follows:
[…] in 90% DMSO per well, in columns 1-20, 8 concentrations (1/3 and 1/3.33 serial dilution step) in single. • Low control: […] of 90% DMSO in half the wells of columns 23-24 (0.45% in final). • High control: […] of reference compound (e.g. compound of Example 7 in WO 2006/122806) in the other half of columns 23-24 (2.5 μM in final). • Standard: […] of reference compound as just mentioned diluted as the test compounds in columns 21-22 • 20 mL ‘buffer’ are prepared per assay: • 200 μL of 1M TRIS HCl pH7.5 (10 mM in final) • 60 μL of 1M MgCl2 (3 mM in final) • 500 μL of 2M NaCl (50 mM in final) • 100 μL of 10% CHAPS (0.05% in final) • 200 μL of 100 mM DTT (1 mM in final) • 18.94 mL of nanopure water • 10 mL ‘PI’ are prepared per assay: • 200 μL of 1 mg/ml L-alpha-Phosphatidylinositol (Liver Bovine, Avanti Polar Lipids Cat. No. 840042C MW=909.12) prepared in 3% OctylGlucoside (10 μg/ml in final) • 9.8 mL of ‘buffer’ • 10 mL ‘ATP’ are prepared per assay: • 6.7 μL of 3 mM stock of ATP giving a final concentration of 1 μM per well • 10 mL of ‘buffer’ • 2.5 mL of each PI3K construct are prepared per assay in ‘PI’ with the following final concentration: • 10 nM PI3K alfa EMV B1075 • 25 nM beta EMV BV949 • 10 nM delta EMV BV1060 • 150 nM gamma EMV BV950 • 5 μL of ‘PI/PI3K’ are added per well. • 5 μl ‘ATP’ are added per well to start the reaction. • The plates are then incubated at room temperature for 60 minutes (alfa, beta, delta) or 120 minutes (gamma). • The reaction is terminated by the addition of 10 μL Kinase-Glo (Promega Cat. No. #6714). • The assay plates are read after 10 minutes in Synergy 2 reader (BioTek, Vermont USA) with an integration time of 100 milliseconds and sensitivity set to 191. • Output: The High control is around 60'000 counts and the Low control is 30'000 or lower • This luminescence assay gives a useful Z′ ratio between 0.4 and 0.7
IC50 is determined by a four parameter curve fitting routine that comes along with “excel fit”. […] Alternatively, IC50 values are calculated using idbsXLfit model 204, which is a 4 parameter logistic model.

[5] = test system: PKB Ser473 phosphorylation in Rat1-myr-HA-p110 alpha cells; experiment: Reverse protein array assay, PKB Ser473 phosphorylation in Rat1-myr-p110 alpha cells; type: cell-based; conditions: 0.5 h, pAkt Ser473, 30 minutes compound incubation, read-out: p-PKB IC50
In short: (§1)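 Measured: PKB Ser473 phosphorylation by reverse protein array in Rat1 cells expressing myr-HA-p110 alpha, beta or delta, after 30 min compound treatment at 37 °C with 0.2% DMSO vehicle.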

[6] = test system: PKB Ser473 phosphorylation in Rat1-myr-HA-p110 beta cells; experiment: Reverse protein array assay, PKB Ser473 phosphorylation in Rat1-myr-p110 beta cells; type: cell-based; conditions: 0.5 h, pAkt Ser473, 30 minutes incubation, read-out: p-PKB IC50
In short: as §1

[7] = test system: PKB Ser473 phosphorylation in Rat1-myr-HA-p110 delta cells; experiment: Reverse protein array assay, PKB Ser473 phosphorylation in Rat1-myr-p110 delta cells; type: cell-based; conditions: read-out: p-PKB IC50
In short: as §1

[8] = test system: S6 Ribosomal Protein phosphorylation Ser235/236 in TSC1 null mouse embryo fibroblast (MEF) cells; experiment: Reverse protein array assay, S6 Ribosomal Protein phosphorylation Ser235/236 in TSC1 null MEF cells; type: cell-based; conditions: 1 h, pS6 ribosomal protein Ser235/236, 60 minutes incubation, read-out: p-S6 IC50
In short: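 TSC1−/− MEFs, seeded and held ≥20 h at 37 °C/5% CO2, were exposed to 8-step serial compound dilutions (0.02% DMSO final; DMSO vehicle control) for 60 min at 37 °C. Cells were then lysed on ice for 10 min and lysates spotted onto reverse protein array chips.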

[9] = target: T5, mTOR (Homo sapiens, UniProt P42345); experiment: Biochemical assay for m-TOR by TR-FRET; conditions: 8 μM ATP, 400 nM GFP-4EBP1, 0.5 nM mTOR
T5 construct: purchased Invitrogen Corporation (Carlsbad/CA, USA) PV4753
In short: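 Steps: ATP (8 μM final) plus GFP-4EBP1 (400 nM final) combined with mTOR (0.5 nM final), incubated at rt; buffer HEPES pH 7.5 with 10 mM MnCl2, NaCl, EGTA, DTT. Then stopped with EDTA/Tb3+-anti-p4EBP1 pT46 Ab (0.5 nM). Plates read after 15 min.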

[10] = Solubility at pH 6.8; type: physicochemical
In short: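 Solubility was measured at pH 6.8 following the cited Zhou et al. (2007) procedure.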

[11] = pH 6.8, aqueous buffer, thermodynamic from solid, read-out: solubility

T5 sequence (P42345 1360-2549 limits assumed): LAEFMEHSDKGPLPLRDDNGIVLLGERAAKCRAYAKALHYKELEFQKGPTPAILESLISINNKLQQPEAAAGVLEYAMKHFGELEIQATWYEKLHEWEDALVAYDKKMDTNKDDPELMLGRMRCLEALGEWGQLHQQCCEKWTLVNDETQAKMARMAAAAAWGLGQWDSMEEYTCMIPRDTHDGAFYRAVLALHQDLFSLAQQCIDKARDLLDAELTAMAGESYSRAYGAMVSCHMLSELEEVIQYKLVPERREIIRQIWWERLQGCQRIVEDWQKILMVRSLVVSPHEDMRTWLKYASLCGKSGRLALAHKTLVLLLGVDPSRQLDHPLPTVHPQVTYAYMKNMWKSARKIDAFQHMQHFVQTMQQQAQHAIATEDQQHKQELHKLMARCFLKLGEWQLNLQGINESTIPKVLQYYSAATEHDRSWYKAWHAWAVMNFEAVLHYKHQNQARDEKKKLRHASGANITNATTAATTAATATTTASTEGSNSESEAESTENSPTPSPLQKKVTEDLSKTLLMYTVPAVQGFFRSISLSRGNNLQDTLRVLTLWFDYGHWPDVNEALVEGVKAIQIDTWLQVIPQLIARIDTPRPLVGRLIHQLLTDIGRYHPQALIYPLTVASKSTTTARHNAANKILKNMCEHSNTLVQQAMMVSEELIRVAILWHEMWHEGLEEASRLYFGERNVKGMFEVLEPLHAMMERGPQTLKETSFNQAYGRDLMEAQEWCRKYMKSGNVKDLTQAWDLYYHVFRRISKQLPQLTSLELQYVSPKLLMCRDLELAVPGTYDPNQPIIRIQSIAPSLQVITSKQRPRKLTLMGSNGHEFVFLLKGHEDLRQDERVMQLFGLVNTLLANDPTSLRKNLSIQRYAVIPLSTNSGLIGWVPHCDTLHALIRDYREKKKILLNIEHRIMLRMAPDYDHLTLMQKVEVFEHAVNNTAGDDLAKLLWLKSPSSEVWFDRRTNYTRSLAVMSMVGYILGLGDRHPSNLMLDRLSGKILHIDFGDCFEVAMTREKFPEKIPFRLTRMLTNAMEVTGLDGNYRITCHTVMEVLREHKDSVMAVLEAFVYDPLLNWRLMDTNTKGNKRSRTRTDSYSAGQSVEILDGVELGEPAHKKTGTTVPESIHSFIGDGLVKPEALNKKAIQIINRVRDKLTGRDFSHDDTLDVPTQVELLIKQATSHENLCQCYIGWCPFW
T3 sequence (O00329 with tags, fused parts or gaps limits assumed): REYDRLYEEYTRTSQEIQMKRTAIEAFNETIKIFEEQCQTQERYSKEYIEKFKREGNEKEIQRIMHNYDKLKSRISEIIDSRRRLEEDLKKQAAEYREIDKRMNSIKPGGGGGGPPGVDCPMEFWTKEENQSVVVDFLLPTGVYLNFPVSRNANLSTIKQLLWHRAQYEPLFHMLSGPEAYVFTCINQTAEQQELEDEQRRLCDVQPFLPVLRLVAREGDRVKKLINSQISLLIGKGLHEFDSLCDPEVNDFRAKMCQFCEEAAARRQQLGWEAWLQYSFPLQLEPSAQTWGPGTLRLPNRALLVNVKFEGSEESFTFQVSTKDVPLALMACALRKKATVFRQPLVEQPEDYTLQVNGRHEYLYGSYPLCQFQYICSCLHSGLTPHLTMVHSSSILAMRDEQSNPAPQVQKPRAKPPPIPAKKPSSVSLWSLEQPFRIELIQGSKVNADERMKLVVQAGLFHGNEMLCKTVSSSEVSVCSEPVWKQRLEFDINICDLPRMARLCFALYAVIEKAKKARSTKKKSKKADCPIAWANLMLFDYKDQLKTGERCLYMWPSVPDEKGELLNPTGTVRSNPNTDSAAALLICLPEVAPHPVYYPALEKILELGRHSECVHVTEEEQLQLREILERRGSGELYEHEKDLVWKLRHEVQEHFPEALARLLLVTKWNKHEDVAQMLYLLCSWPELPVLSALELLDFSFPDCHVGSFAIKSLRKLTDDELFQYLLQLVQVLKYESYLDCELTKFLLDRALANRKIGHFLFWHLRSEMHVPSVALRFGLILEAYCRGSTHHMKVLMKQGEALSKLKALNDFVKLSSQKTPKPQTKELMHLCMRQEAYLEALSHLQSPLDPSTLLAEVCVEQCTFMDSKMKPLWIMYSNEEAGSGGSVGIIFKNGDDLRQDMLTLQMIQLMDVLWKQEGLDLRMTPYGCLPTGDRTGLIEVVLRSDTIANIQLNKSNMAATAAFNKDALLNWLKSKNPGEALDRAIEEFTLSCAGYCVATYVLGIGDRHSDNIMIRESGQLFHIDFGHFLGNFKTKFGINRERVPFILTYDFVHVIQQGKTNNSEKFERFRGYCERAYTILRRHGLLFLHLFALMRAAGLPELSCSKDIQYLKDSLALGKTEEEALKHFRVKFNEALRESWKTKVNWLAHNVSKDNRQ
T2 sequence (P42338 with tags, fused parts or gaps limits assumed): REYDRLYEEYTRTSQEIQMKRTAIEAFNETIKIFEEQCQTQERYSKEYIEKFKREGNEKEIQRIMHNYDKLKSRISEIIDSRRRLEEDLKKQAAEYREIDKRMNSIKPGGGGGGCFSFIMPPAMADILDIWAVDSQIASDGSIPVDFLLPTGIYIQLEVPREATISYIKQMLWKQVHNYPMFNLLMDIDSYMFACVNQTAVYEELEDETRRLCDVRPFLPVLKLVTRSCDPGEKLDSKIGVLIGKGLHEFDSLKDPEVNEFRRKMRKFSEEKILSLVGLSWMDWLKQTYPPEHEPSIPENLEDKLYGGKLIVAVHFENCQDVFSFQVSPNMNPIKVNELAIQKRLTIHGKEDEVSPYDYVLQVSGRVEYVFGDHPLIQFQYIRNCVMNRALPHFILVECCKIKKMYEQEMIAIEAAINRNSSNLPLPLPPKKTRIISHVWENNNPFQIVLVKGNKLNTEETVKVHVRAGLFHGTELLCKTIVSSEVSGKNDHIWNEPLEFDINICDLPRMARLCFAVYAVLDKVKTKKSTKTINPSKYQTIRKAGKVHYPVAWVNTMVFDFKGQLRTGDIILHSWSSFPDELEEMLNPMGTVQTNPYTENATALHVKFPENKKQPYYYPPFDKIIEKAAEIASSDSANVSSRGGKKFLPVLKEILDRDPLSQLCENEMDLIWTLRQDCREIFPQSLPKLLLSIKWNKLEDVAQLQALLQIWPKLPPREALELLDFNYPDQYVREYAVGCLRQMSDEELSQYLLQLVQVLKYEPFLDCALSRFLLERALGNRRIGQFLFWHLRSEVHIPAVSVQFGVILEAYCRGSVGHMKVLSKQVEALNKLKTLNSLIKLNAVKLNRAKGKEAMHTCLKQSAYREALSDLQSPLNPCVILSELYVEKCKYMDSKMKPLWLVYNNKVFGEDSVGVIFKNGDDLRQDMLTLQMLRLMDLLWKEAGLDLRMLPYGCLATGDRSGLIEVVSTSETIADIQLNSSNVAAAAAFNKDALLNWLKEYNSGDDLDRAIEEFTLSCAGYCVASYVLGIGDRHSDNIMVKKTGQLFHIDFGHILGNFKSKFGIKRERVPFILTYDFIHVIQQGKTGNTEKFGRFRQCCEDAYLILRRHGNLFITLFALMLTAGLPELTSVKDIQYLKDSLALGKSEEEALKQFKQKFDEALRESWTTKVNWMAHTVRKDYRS
T1 sequence (P42336 with tags, fused parts or gaps limits assumed): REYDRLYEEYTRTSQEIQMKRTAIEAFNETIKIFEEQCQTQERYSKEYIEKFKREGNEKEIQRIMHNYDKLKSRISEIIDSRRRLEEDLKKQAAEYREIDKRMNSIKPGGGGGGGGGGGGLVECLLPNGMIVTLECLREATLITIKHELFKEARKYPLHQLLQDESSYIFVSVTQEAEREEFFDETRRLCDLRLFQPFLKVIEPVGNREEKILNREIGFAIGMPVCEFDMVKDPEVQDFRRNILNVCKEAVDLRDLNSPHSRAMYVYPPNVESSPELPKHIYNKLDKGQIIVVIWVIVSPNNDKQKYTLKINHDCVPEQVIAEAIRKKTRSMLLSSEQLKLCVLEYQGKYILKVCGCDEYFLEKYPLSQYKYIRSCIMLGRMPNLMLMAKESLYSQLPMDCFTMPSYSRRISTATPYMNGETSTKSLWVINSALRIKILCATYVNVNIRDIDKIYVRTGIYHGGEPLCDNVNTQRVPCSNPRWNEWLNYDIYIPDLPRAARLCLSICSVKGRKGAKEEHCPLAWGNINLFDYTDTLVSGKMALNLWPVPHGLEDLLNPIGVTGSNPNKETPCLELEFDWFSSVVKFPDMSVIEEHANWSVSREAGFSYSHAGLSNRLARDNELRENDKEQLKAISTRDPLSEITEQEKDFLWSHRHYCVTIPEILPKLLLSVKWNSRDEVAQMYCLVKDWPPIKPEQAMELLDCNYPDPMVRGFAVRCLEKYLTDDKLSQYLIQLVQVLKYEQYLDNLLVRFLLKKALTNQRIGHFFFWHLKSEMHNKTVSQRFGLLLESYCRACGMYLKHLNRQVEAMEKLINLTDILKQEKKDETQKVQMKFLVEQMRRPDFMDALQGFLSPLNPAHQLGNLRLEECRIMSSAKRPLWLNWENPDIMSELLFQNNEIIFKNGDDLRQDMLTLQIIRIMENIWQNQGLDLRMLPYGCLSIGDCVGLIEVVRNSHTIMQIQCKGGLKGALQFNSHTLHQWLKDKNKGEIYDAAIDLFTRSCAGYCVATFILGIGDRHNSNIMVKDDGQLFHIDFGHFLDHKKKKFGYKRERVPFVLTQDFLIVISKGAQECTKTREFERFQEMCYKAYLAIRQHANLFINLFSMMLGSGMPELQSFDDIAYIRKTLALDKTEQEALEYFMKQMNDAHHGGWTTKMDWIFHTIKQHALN

Row | IC50 [1] | IC50 [2] | IC50 [3] | IC50 [4] | IC50 [5] | IC50 [6] | IC50 [7] | IC50 [9] | solubility [10, 11] | solubility ([10]; pH 6.8) | Compound | IC50 [8]
1 | 9 nM | 6 nM | 10 nM | 238 nM | < 5 nM | < 5 nM | 5 nM |  |  |  | COc1ccc(-c2ccc3ncc4c(c3c2)n(-c2cn(C)nc2Cl)c(=O)n4C)cc1OC [Example 1.10, 1-(3-Chloro-1-methyl-1H-pyrazol-4-yl)-8-(3,4-dimethoxy-phenyl)-3-methyl-1,3-dihydro-imidazo[4,5-c]quinolin-2-one] | 1 nM
2 | 9 nM | 46 nM | 16 nM | 128 nM | 162 nM | 214 nM | 399 nM | 110 nM |  |  | Cc1nn(C)cc1-n1c(=O)n(C)c2cnc3ccc(-c4cc(O)cc(F)c4)cc3c21 [Example 33, 1-(1,3-Dimethyl-1H-pyrazol-4-yl)-8-(3-fluoro-5-hydroxy-phenyl)-3-methyl-1,3-dihydro-imidazo[4,5-c]quinolin-2-one] | 
3 | 250 nM |  | 465 nM | 335 nM |  |  |  |  | 355 µg/mL (≈ 926 µM) |  | Cc1nn(C)c(C)c1-n1c(=O)n(C)c2cnc3ccc(-c4ccccc4)cc3c21 [Example 37.2, 3-Methyl-8-phenyl-1-(1,3,5-trimethyl-1H-pyrazol-4-yl)-1,3-dihydro-imidazo[4,5-c]quinolin-2-one] | 
4 | 12 nM | 25 nM | 15 nM | 87 nM |  |  |  | 63 nM |  |  | COc1ncc(-c2ccc3ncc4c(c3c2)n(-c2cn(C)nc2C)c(=O)n4C)cc1F [Example 13, 1-(1,3-Dimethyl-1H-pyrazol-4-yl)-8-(5-fluoro-6-methoxy-pyridin-3-yl)-3-methyl-1,3-dihydro-imidazo[4,5-c]quinolin-2-one] | 10 nM
5 | 446 nM |  |  | 173 nM |  |  |  | 232 nM | 65 µg/mL (≈ 148 µM) |  | Cc1nn(C)cc1-n1c(=O)n(C)c2cnc3ccc(-c4ccc(-c5nn[nH]n5)nc4)cc3c21 [Example 123, 1-(1,3-Dimethyl-1H-pyrazol-4-yl)-3-methyl-8-[6-(2H-tetrazol-5-yl)-pyridin-3-yl]-1,3-dihydro-imidazo[4,5-c]quinolin-2-one] | 
6 | 29 nM | 67 nM | 30 nM | 118 nM | 29 nM | 49 nM | 64 nM | 177 nM |  |  | COc1cc(-c2ccc3ncc4c(c3c2)n(-c2c(C)nn(C)c2C)c(=O)n4C)ccc1O [Example 31, 8-(4-Hydroxy-3-methoxy-phenyl)-3-methyl-1-(1,3,5-trimethyl-1H-pyrazol-4-yl)-1,3-dihydro-imidazo[4,5-c]quinolin-2-one] | 
7 | 148 nM |  | 800 nM | 851 nM | 208 nM | 308 nM |  |  | 128 µg/mL (≈ 345 µM) |  | Cc1nn(C)cc1-n1c(=O)n(C)c2cnc3ccc(-c4cnccn4)cc3c21 [Example 115, 1-(1,3-Dimethyl-1H-pyrazol-4-yl)-3-methyl-8-pyrazin-2-yl-1,3-dihydro-imidazo[4,5-c]quinolin-2-one] | 
8 | 11 nM | 18 nM | 10 nM | 116 nM |  |  |  | 5 nM |  |  | Cc1nn(C)cc1-n1c(=O)n(C)c2cnc3ccc(-c4cncc(NS(C)(=O)=O)c4)cc3c21 [Example 120, N-{5-[1-(1,3-Dimethyl-1H-pyrazol-4-yl)-3-methyl-2-oxo-2,3-dihydro-1H-imidazo[4,5-c]quinolin-8-yl]-pyridin-3-yl}-methanesulfonamide] | 355 nM
9 | 32 nM | 205 nM | 18 nM | 391 nM | 375 nM | 273 nM | 602 nM |  |  |  | Cc1nn(C)cc1-n1c(=O)n(C)c2cnc3ccc(-c4ccc(NCCO)nc4)cc3c21 [Example 21.2] | 666 nM
10 |  |  |  | 760 nM |  |  |  |  |  | 2 µg/mL (≈ 4.54 µM) | Cc1nn(C)cc1-n1c(=O)n(C)c2cnc3ccc(-c4ccc(C(=O)N(C)C)cc4)cc3c21 [Example 48, 4-[1-(1,3-Dimethyl-1H-pyrazol-4-yl)-3-methyl-2-oxo-2,3-dihydro-1H-imidazo[4,5-c]quinolin-8-yl]-N,N-dimethyl-benzamide] | 
11 | 50 nM | 280 nM | 61 nM | 216 nM | 33 nM | 21 nM | 66 nM | 155 nM |  |  | CCn1nccc1-n1c(=O)n(C)c2cnc3ccc(-c4ccc(OC)c(OC)c4)cc3c21 [Example 1.2, 8-(3,4-Dimethoxy-phenyl)-1-(2-ethyl-2H-pyrazol-3-yl)-3-methyl-1,3-dihydro-imidazo[4,5-c]quinolin-2-one] | 
